Test results taken from patent US20240033237A1, “USE OF A-KETOGLUTARATE IN MANUFACTURE OF MEDICAMENT” (TONGJI UNIVERSITY, priority 2019, published 2024).

What was measured:
NF-κB signaling pathway = test: Activation of NF-κB signaling pathway in IL-1β-stimulated chondrocytes (whole-genome sequencing, nuclear P65 western blot); type: cell-based, mouse
Procedure: Mouse chondrocytes were obtained from 7-day-old C57BL/6 mice (Shanghai Slac laboratory animal Co., Ltd.), and the procedure was as follows: under aseptic surgical conditions, bilateral knee cartilages of C57 mice were carefully stripped and digested with 0.2% neutral collagenase (Serva, Germany) for 8 h; cell precipitates were obtained by centrifugation, and the cells were resuspended in modified Eagle medium (DMEM) (Gibco, USA) containing 10% FBS, inoculated in culture dishes, and cultured with high-sugar DMEM medium (containing 10% FBS, 100 U/mL penicillin and 100 mg/L streptomycin) at 37° C. in a 5% CO2 constant temperature incubator. The medium was changed for the first time at 48 h. […] The cells were collected by centrifugation and resuspended, and the concentration was adjusted for inoculation in culture dishes. The cells were subcultured by the above method, and the obtained cells were labeled as P1, P2, P3 generations, etc. P1 generation mouse chondrocytes cultured in Embodiment 1 were subjected to western blot analysis through operations including the following: • 1. Collecting of protein samples: The culture medium was sucked out, and the cells were washed twice with PBS at 4° C. and then dried. […] The protein concentration was determined by the BCA Protein Quantification Kit. […]

skin hair follicles = test: Regeneration level of skin hair follicles in mice, intradermal injection, histological staining; type: in vivo; conditions: 12-month-old mice, 4 weeks after injection, vs PBS group
Procedure: The skin on the back of posterior limbs of 12-month-old aged mice was taken, and the treatment group was intradermally injected with PBS-diluted α-KG (1 μl of dimethyl-α-KG dissolved in 4 μl of PBS). A sham operation was performed and PBS was injected as a control. Histological staining was performed to observe the changes of skin hair follicles at 4 weeks after injection.

SMILES: COC(=O)CCC(=O)C(=O)OC [α-KG, dimethyl-α-ketoglutarate]
- expression of P65 in the NF-κB signaling pathway in the nucleus (NF-κB signaling pathway; western blot, IL-1β 0 min, 15 min, 30 min, 60 min, 7 mM α-KG): significantly inhibited
- expression of many genes in the NF-κB signaling pathway (NF-κB signaling pathway; whole-genome sequencing, IL-1β stimulation, α-KG complemented): suppressed
- number of skin hair follicles (skin hair follicles): significantly increased
